The results in this text go back to patent US20160017054A1, “Spermidine/Spermine N1 - Acetyltransferase Antibodies As Anti-Cancer Drug Compounds” (BIOMARK TECHNOLOGIES INC., priority 2013, published 2016).

The assay concerns human tumor cell lines U2-OS, HeLa, Malme-3M, PC-3 and HEK293. As to the kind of experiment: Relative cell viability (percent confluency) during incubation with spermidine. Conditions: spermidine 22 μM to 550 μM. Format: cell-based.

Turning to `NCCCCNCCCN` [spermidine, Spermidine], the “relative cell viability, expressed as percent confluency” value by setting is: (SSAT non-expressing cell lines (U2-OS and HeLa)) “highest”; (SSAT over-expressing cell lines (Malme-M3 and PC-3)) “lowest”.
